In patent US20240132431A1, “METHOD FOR ALKYLATING ACIDIC FUNCTIONAL GROUP” (Chugai Seiyaku Kabushiki Kaisha, priority 2021, published 2024):

Target: T1, Bcl-2 protein (Recombinant Human Bcl-2 Protein) (Homo sapiens, UniProt P10415)
T1 construct: purchased Novus NBP2-34889
Assay: Binding evaluation of mixture library compounds to Bcl-2 using AS-MS (affinity selection mass spectrometry)
Conditions: ASMS Ratio(%)=(A−C)/B×100; for ASMS ratio (%) n = 1: replicate n = 1; for ASMS ratio (%) n = 2: replicate n = 2
Method: For one well of MICROPLATE, 96-well, PP, V-BOTTOM (Greiner bio-one, 651201), DMSO solutions of 12 mixtures (prepared to approximately 0.58 mM based on calculations from the average molecular weight of each mixture), in each of which 100 compounds are mixed, were each dispensed, and dispensed into a total of 12 wells, where the 12 mixtures are mixAI-B4J-01, mixAI-B1M-01, mixAI-B1K-01, mixAI-B10-01, mixAI-B1A-01, mixAI-B3A-01, mixAI-B21-01, mixAI-B2L-01, mixAI-B2N-01, mixAI-B2A-01, mixAI-B2Q-01, and mixAI-B2R-01 listed in [Table AI-03-B4J-01], [Table AI-03-B1M-01], [Table AI-03-B1K-01], [Table AI-03-B10-01], [Table AI-03-B1A-01], [Table AI-03-B3A-01], [Table AI-03-B2I-01], [Table AI-03-B2L-01], [Table AI-03-B2N-01], [Table AI-03-B2A-01], [Table AI-03-B2Q-01], and [AI-03-B2R-01] shown in Example 6. Using the LABCYTE ECHO® 555 Acoustic Dispensing System (BECKMAN COULTER), 70 nL was collected from each of the 12 wells into one arbitrary well to prepare a sample solution with 1200 compounds in the mixed state (the presence of 1152 compounds had already been identified when prepared in Example 6-5-3). (In the present specification, the mixture collected in this one well is referred to as one library.) Furthermore, a Bcl-2 protein (Novus, NBP2-34889, Recombinant Human Bcl-2 Protein, Lot E60145051) (19.2 μL) that had been prepared in advance to be 20.9 μM using a Tris-HCl buffer (25 mM Tris-HCl pH 7.4, 150 mM NaCl, 0.025% Tween-20, 1 mM DTT) was added to the well in which 1200 compounds (the presence of 1152 compounds had already been identified when prepared in Example 6-5-3) were dispensed (final compound concentration […], final Bcl-2 concentration 20 μM), and the mixture was incubated in the dark at 23° C. for 1 hour. Next, using the 96-well MacroSpin column, P-2 Material (Harvard, 74-5655) that had been swollen, conditioning of the 96-well MacroSpin column was performed three times by centrifugation with 200 μL of an assay buffer (25 mM Tris-HCl pH 7.4, 150 mM NaCl, 0.025% Tween-20, 1 mM DTT), 2000 XG, 4° C., 2 min. Subsequently, 20 μL of the sample after incubation was added to the 96-well MacroSpin column, P-2 Material, that had been conditioned, and SEC treatment was performed by centrifugation at 2000×G for 2 minutes. To the liquid passed from the SEC, 32 μL of a 1:1 mixed solution of acetonitrile and methanol (LC/MS grade, Fujifilm Wako Pure Chemical Corporation) was added, the mixture was centrifuged at 1800×G, 4° C., 5 min, and the supernatant was used as analysis sample ASMS (A), while a sample that had been prepared by the same operations at 1200 compounds/well and to which only the Tris-HCl buffer had been added without the Bcl-2 protein was incubated under the same conditions, no 96-well MacroSpin column treatment was performed, the same organic solvent was added, and the supernatant solution obtained by centrifugation was used as STD (B). Next, a sample that had been prepared by the same operations at 1200 compounds/well and to which only the Tris-HCl buffer had been added without the Bcl-2 protein was incubated under the same conditions, the same 96-well MacroSpin column treatment was performed, the same organic solvent was added, and the supernatant solution obtained by centrifugation was used as BK (C), and measured by reversed phase LC/MS.
Then, analysis of the 1200 compounds was carried out for samples A, B, and C with TraceFinder 5.1 (Thermo Fisher Scientific) and CHANCE Software (in-house), and the ASMS Ratio (%) was calculated according to the following calculation formula.
Calculation formula: ASMS Ratio(%)=(A−C)/B×100

[1] = AS-MS on the mixture of 1200 library compounds
[2] = AS-MS, mixture of 1200 compounds, Bcl-2

T1 sequence (P10415 whole entry): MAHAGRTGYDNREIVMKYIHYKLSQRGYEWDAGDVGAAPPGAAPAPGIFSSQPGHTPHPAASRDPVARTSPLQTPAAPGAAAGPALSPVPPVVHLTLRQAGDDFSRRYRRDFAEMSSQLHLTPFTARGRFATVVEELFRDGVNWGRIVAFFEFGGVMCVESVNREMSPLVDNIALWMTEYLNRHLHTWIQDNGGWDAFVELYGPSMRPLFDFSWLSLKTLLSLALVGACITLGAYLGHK

Row | Substance | ASMS ratio (%) n = 1 [1] [%] | ASMS ratio (%) n = 2 [1] [%] | ASMS ratio (%) n = 1 [2] [%] | ASMS ratio (%) n = 2 [2] [%]
1 | 4-[4-[4-(3-Ethoxyphenyl)thiophene-2-carbonyl]piperazin-1-yl]-N-propylbenzamide [B1M083-01] | 0.0 | −0.3 |  | 
2 | 4-[4-[4-(5-Ethoxypyridin-3-yl)-3-fluorobenzoyl]piperazin-1-yl]-N-propylbenzamide [B1M091-01] | 0.0 | 0.0 |  | 
3 | 4-[4-[4-(5-Ethoxypyridin-3-yl)-3-methylbenzoyl]piperazin-1-yl]-N-propylbenzamide [B1M039-01] |  |  | 2.3 | −0.6
4 | 4-[4-[4-(5-Ethoxypyridin-3-yl)naphthalene-1-carbonyl]piperazin-1-yl]-N-propylbenzamide [B1M074-01] |  |  | −1.6 | 0.9
5 | 4-[4-[4-(5-Ethoxypyridin-3-yl)thiophene-2-carbonyl]piperazin-1-yl]-N-propylbenzamide [B1M084-01] | 0.0 | 0.0 |  | 
6 | 4-[4-[5-[2-(3-Ethoxyphenyl)ethynyl]pyridine-3-carbonyl]piperazin-1-yl]-N-propylbenzamide [B1M002-01] |  |  | −0.7 | −1.5
7 | 4-[4-[5-[2-(5-Ethoxypyridin-3-yl)ethynyl]pyridine-3-carbonyl]piperazin-1-yl]-N-propylbenzamide [B1M057-01] |  |  | −0.7 | 1.4
8 | 4-[4-[[2-(3-Ethoxyphenyl)phenyl]methyl]piperazin-1-yl]-N-propylbenzamide [B1M040-01] |  |  | −0.3 | 0.0
9 | 4-[4-[[2-(5-Ethoxypyridin-3-yl)phenyl]methyl]piperazin-1-yl]-N-propylbenzamide [B1M041-01] |  |  | 0.7 | −3.5
10 | 4-[4-[[3-(3-Ethoxyphenyl)-5-(trifluoromethoxy)phenyl]methyl]piperazin-1-yl]-N-propylbenzamide [B1M032-01] |  |  | 0.3 | 0.3
11 | 4-[4-[[3-(3-Ethoxyphenyl)-5-(trifluoromethyl)phenyl]methyl]piperazin-1-yl]-N-propylbenzamide [B1M026-01] |  |  | 0.9 | 0.9
12 | 4-[4-[[3-(5-Ethoxypyridin-3-yl)-5-(trifluoromethoxy)phenyl]methyl]piperazin-1-yl]-N-propylbenzamide [B1M034-01] |  |  | −0.3 | −0.2
13 | 4-[4-[[3-(5-Ethoxypyridin-3-yl)-5-(trifluoromethyl)phenyl]methyl]piperazin-1-yl]-N-propylbenzamide [B1M028-01] |  |  | 0.0 | 0.0
14 | 4-[4-[[3-(5-Ethoxypyridin-3-yl)-5-propan-2-yloxyphenyl]methyl]piperazin-1-yl]-N-propylbenzamide [B1M017-01] |  |  | −0.1 | 0.3
15 | 4-[4-[[3-Ethoxy-5-(3-ethoxyphenyl)phenyl]methyl]piperazin-1-yl]-N-propylbenzamide [B1M009-01] |  |  |  | 0.0
16 | 4-[4-[[3-Ethoxy-5-(5-ethoxypyridin-3-yl)phenyl]methyl]piperazin-1-yl]-N-propylbenzamide [B1M011-01] |  |  | 18.6 | 7.5

Row | Substance | ASMS ratio (%) n = 1 [1] [%] | ASMS ratio (%) n = 2 [1] [%] | ASMS ratio (%) n = 1 [2] [%] | ASMS ratio (%) n = 2 [2] [%]
17 | 4-[4-[[4-(3-Ethoxyphenyl)-2,6-dimethoxyphenyl]methyl]piperazin-1-yl]-N-propylbenzamide [B1M020-01] |  |  | 0.0 | 0.0
18 | 4-[4-[[4-(3-Ethoxyphenyl)-2-ethylphenyl]methyl]piperazin-1-yl]-N-propylbenzamide [B1M069-01] |  |  | −0.2 | −4.4
19 | 4-[4-[[4-(3-Ethoxyphenyl)-2-methoxyphenyl]methyl]piperazin-1-yl]-N-propylbenzamide [B1M093-01] | 0.0 | 0.0 |  | 
20 | 4-[4-[[4-(3-Ethoxyphenyl)naphthalen-1-yl]methyl]piperazin-1-yl]-N-propylbenzamide [B1M044-01] |  |  | 1.0 | 1.1
21 | 4-[4-[[4-(3-Ethoxyphenyl)thiophen-2-yl]methyl]piperazin-1-yl]-N-propylbenzamide [B1M048-01] |  |  | 0.9 | 0.3
22 | 4-[4-[[4-(5-Ethoxypyridin-3-yl)-2,6-dimethoxyphenyl]methyl]piperazin-1-yl]-N-propylbenzamide [B1M022-01] |  |  | −13.6 | 6.7
23 | 4-[4-[[4-(5-Ethoxypyridin-3-yl)-2-methoxyphenyl]methyl]piperazin-1-yl]-N-propylbenzamide [B1M099-01] | −0.7 | −0.3 |  | 
24 | 4-[4-[[4-(5-Ethoxypyridin-3-yl)-3-fluorophenyl]methyl]piperazin-1-yl]-N-propylbenzamide [B1M085-01] | 0.0 | 0.0 |  | 
25 | 4-[4-[[4-(5-Ethoxypyridin-3-yl)-3-methylphenyl]methyl]piperazin-1-yl]-N-propylbenzamide [B1M064-01] |  |  | 5.4 | −4.3
26 | 4-[4-[[4-(5-Ethoxypyridin-3-yl)naphthalen-1-yl]methyl]piperazin-1-yl]-N-propylbenzamide [B1M046-01] |  |  | 0.7 | −1.2
27 | 4-[4-[[4-(5-Ethoxypyridin-3-yl)thiophen-2-yl]methyl]piperazin-1-yl]-N-propylbenzamide [B1M050-01] |  |  | −2.0 | −0.2
28 | 6-[4-[2-[2-(3-Ethoxyphenyl)ethynyl]benzoyl]piperazin-1-yl]-N-propylpyridazine-3-carboxamide [B1M095-01] | 0.0 | 0.0 |  | 
29 | 6-[4-[2-[2-(5-Ethoxypyridin-3-yl)ethynyl]benzoyl]piperazin-1-yl]-N-propylpyridazine-3-carboxamide [B1M096-01] |  | 0.0 |  | 
30 | 6-[4-[3-(3-Ethoxyphenyl)-5-(trifluoromethyl)benzoyl]piperazin-1-yl]-N-propylpyridazine-3-carboxamide [B1M089-01] | 3.9 | 0.2 |  | 
31 | 6-[4-[3-(5-Ethoxypyridin-3-yl)-5-(trifluoromethyl)benzoyl]piperazin-1-yl]-N-propylpyridazine-3-carboxamide [B1M007-01] |  |  | 0.3 | 0.3
32 | 6-[4-[3-[2-(3-Ethoxyphenyl)ethynyl]-5-(trifluoromethyl)benzoyl]piperazin-1-yl]-N-propylpyridazine-3-carboxamide [B1M013-01] |  |  | 2.9 | −1.1
